# Laboratory results taken from patent US11332470B2, “CXCR4 inhibitors and uses thereof” (X4 Pharmaceuticals, Inc., priority 2016, dated 2022).
# Legend:
# [1] = Fraction of drug unbound to brain proteins; assay type: in vitro ADME, Mouse; conditions: read-out: Fu (b) % (fraction of drug unbound to brain proteins)
# CXCR4 (U87.CXCR4 cells) = biological target: T1, CXCR4 (U87.CXCR4 cells) (Homo sapiens, UniProt P61073); test: Intracellular CXCL-12-induced calcium mobilization assay (FLIPR); assay type: cell-based; conditions: CXCL-12 25-50 ng/mL, read-out: IC50 CXCL-12 Ca2+ flux U87.CXCR4+
# T1 construct: expressed in transfected cells; host or cells: U87 (U87.CXCR4)
# T1 sequence (P61073 whole entry): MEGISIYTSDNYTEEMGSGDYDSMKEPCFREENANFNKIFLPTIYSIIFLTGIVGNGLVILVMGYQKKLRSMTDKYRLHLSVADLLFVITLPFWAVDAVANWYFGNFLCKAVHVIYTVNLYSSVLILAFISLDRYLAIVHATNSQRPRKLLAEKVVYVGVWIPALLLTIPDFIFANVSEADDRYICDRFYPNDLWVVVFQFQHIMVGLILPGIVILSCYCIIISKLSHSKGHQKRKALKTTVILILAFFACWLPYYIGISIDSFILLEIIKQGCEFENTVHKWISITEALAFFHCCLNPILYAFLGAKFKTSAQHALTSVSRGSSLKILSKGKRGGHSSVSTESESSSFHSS
# Summary of the method: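 U87.CXCR4 cells were loaded with 4 μM Fluo-2 AM for 45 min at 37 °C in HBSS/20 mM HEPES/0.2% BSA, pH 7.4. Calcium flux induced by CXCL-12 (25-50 ng/mL) was monitored kinetically by FLIPR fluorescence at 37 °C.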
# in vitro = conditions: human, Caco-2, pH 7.4
# Summary of the method: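 Compound at 10 μM in HBSS pH 7.4 dosed A-to-B and B-to-A across Caco-2 monolayers, 90 min at 37 °C, duplicates. Monolayer integrity by TEER and lucifer yellow (5 μM, fluorescence 485/535 nm); compound quantified by LC-MS/MS.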
# [2] = Fraction of drug unbound to plasma proteins; assay type: in vitro ADME, Mouse; conditions: read-out: Fu (p) % (fraction of drug unbound to plasma proteins)
# [3] = biological target: T2, CXCR4 (Jurkat cells expressing CXCR4) (Homo sapiens, UniProt P61073); test: Chemokine (CXCL12-AF647) binding inhibition assay; conditions: CXCL12-AF647 25 ng/mL, read-out: IC50 CXCL-12 binding Jurkat
# T2 construct: Jurkat cells expressing CXCR4; endogenous in cells; host or cells: Jurkat
# T2 sequence (P61073 whole entry): as above
# Summary of the method: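 Cells in HBSS, 20 mM HEPES, 0.2% BSA, pH 7.4, preincubated 15 min at room temperature with compound, then 25 ng/mL CXCL12-AF647 for 30 min. After washing and paraformaldehyde fixation, bound ligand read by flow cytometry; percent inhibition calculated from MFI relative to unlabeled and ligand-only controls.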
SMILES,"fraction unbound ([1]; Table 10, mouse)",IC50 (CXCR4 (U87.CXCR4 cells)),"Papp A→B at 90 min, 10 μM (in vitro)","Papp B→A at 90 min, 10 μM (in vitro)","efflux ratio at 90 min, 10 μM (in vitro)","fraction unbound ([2]; Table 10, mouse)",IC50 [3],"fraction unbound ([1]; Table 9, mouse)","fraction unbound ([2]; Table 9, mouse)"
Cc1cccnc1C1CCCN1Cc1cn2c(N3CCN(C)C4(CC4)C3)cccc2n1 (stereo not drawn) [Compound I-29],0.063,100 to 1000 nM,10 to 30 ×10⁻⁶ cm/s,10 to 30 ×10⁻⁶ cm/s,0.1 to 10,0.455,100 to 1000 nM,,
CN1CCN(c2c(CN3CCCC3c3ccccn3)nc3ccccn23)CC1 (stereo not drawn) [Compound I-41],,0.01 to 100 nM,10 to 30 ×10⁻⁶ cm/s,10 to 30 ×10⁻⁶ cm/s,0.1 to 10,,0.01 to 100 nM,0.069,0.239
CN1CCN(c2cccc3[nH]c(CN4CCCC4c4ncccc4Cl)nc23)CC1 (stereo not drawn) [Compound I-26],,100 to 1000 nM,10 to 30 ×10⁻⁶ cm/s,10 to 30 ×10⁻⁶ cm/s,0.1 to 10,,0.01 to 100 nM,0.076,0.127
Cc1cccnc1C1CCCN1Cc1nc2cccc(N3CCN(C4CC4)CC3)c2[nH]1 (stereo not drawn) [Compound I-31],0.008,100 to 1000 nM,10 to 30 ×10⁻⁶ cm/s,10 to 30 ×10⁻⁶ cm/s,0.1 to 10,0.05,0.01 to 100 nM,,

# Other lines, results leading:
"fraction unbound ([1]; Table 10, mouse)",IC50 (CXCR4 (U87.CXCR4 cells)),"Papp A→B at 90 min, 10 μM (in vitro)","Papp B→A at 90 min, 10 μM (in vitro)","efflux ratio at 90 min, 10 μM (in vitro)","fraction unbound ([2]; Table 10, mouse)",IC50 [3],"fraction unbound ([1]; Table 9, mouse)","fraction unbound ([2]; Table 9, mouse)",SMILES
,0.01 to 100 nM,10 to 30 ×10⁻⁶ cm/s,10 to 30 ×10⁻⁶ cm/s,0.1 to 10,,0.01 to 100 nM,0.053,0.133,CN1CCN(c2c(CN3CCCC3c3ccccn3)nc3ccc(F)cn23)CC1 (stereo not drawn) [Compound I-63]
,0.01 to 100 nM,10 to 30 ×10⁻⁶ cm/s,10 to 30 ×10⁻⁶ cm/s,0.1 to 10,,0.01 to 100 nM,0.207,0.148,CN1CCN(c2c(CN3CCCC3c3nccs3)nc3ccccn23)CC1 (stereo not drawn) [Compound I-70]
